{"source": "patent US20050164370A1", "about": "(priority 2003, published 2005)", "key": {"cytokinin receptor AHK2Δ": {"target": "T1, cytokinin receptor AHK2Δ (Arabidopsis thaliana, UniProt Q9C5U2)", "T1 sequence (Q9C5U2 196-1176)": "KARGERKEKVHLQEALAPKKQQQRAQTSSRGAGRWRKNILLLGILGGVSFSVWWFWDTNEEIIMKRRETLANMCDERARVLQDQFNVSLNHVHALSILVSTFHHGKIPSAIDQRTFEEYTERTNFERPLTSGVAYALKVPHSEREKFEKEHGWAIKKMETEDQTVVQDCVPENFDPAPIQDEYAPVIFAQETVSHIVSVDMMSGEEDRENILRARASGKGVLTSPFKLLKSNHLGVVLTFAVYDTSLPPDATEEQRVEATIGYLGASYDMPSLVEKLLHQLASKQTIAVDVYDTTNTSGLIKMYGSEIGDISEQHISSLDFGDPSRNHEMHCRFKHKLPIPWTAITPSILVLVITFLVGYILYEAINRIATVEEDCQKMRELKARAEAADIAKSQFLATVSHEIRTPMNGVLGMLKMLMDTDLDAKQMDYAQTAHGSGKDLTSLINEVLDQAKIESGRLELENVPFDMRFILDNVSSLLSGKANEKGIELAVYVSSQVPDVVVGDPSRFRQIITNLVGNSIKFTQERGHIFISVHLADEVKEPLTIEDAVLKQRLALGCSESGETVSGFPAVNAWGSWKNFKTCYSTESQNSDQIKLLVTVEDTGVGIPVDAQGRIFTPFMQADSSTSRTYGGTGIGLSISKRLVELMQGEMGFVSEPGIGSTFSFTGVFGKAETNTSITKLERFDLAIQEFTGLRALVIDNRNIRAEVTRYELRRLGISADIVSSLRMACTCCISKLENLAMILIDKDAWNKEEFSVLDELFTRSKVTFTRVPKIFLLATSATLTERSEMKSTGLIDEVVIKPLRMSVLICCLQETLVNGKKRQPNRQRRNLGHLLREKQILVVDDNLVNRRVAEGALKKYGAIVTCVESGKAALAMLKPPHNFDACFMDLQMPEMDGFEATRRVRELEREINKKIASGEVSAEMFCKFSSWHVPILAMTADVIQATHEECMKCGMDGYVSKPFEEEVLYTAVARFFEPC", "settings": "TM182-AHK2Δ, DOLU+Glu agar, 30° C. for 30 hours", "protocol": "(§1) A culture solution 10 μl (about 800 clones of yeast) of the transformed cells TM182-CRE1, TM182-AHK2, TM182-AHK2Δ and TM182-AHK3 produced by the example 12 was spotted on DOLU+Glu agar media containing 10 μM of trans-zeatin and cultured at 30° C. for 30 hours. After incubation, the growth state of the transformed cells was observed and photographed by a digital camera.\n(§2) Culture solutions of the transformed cells TM182-CRE1, TM182-AHK2Δ and TM182-AHK2 produced by the reference example 1 were spotted on DOLU+Glu agar media containing cytokinin in a variety of concentrations (1 nM, 10 nM, 100 nM, 1 μM, 10 μM, 100 μM) and cultured at 30° C. for 30 hours. After incubation, the growth state of the transformed cells was observed and photographed by a digital camera."}, "cytokinin receptor CRE1": {"target": "cytokinin receptor CRE1 (Arabidopsis thaliana, UniProt Q9C5U0, S567G/T1018A)", "sequence (Q9C5U0 24-1080 S567G/T1018A)": "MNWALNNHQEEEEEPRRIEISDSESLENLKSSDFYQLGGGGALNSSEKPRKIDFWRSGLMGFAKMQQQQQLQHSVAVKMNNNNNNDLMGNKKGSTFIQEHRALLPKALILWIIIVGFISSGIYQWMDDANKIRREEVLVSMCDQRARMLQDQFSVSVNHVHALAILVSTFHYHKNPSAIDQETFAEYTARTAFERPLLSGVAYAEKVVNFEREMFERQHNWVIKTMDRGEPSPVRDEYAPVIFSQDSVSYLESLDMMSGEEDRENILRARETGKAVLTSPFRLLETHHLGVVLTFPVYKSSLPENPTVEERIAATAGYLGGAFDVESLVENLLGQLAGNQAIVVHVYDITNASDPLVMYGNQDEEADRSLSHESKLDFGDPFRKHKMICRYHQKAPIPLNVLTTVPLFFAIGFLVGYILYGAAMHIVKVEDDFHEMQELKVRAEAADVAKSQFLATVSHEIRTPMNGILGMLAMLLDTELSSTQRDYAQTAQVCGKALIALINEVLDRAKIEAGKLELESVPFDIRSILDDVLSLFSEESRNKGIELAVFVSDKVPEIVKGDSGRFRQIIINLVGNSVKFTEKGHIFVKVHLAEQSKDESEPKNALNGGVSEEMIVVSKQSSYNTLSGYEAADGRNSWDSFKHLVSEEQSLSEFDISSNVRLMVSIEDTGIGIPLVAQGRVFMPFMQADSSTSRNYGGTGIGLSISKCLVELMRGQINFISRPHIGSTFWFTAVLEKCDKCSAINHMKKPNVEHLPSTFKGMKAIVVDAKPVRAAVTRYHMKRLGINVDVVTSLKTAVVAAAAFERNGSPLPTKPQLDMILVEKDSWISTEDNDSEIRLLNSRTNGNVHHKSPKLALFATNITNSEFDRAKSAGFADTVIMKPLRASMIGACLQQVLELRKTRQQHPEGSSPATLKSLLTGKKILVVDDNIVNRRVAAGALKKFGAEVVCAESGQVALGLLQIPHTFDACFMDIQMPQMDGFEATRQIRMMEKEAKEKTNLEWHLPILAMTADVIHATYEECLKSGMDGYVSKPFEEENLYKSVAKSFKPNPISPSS", "settings": "TM182-CRE1, DOLU+Glu agar, 30° C. for 30 hours", "protocol": "as §1, §2"}, "cytokinin receptor AHK2": {"target": "T2, cytokinin receptor AHK2 (Arabidopsis thaliana, UniProt Q9C5U2)", "T2 sequence (Q9C5U2 1-1176)": "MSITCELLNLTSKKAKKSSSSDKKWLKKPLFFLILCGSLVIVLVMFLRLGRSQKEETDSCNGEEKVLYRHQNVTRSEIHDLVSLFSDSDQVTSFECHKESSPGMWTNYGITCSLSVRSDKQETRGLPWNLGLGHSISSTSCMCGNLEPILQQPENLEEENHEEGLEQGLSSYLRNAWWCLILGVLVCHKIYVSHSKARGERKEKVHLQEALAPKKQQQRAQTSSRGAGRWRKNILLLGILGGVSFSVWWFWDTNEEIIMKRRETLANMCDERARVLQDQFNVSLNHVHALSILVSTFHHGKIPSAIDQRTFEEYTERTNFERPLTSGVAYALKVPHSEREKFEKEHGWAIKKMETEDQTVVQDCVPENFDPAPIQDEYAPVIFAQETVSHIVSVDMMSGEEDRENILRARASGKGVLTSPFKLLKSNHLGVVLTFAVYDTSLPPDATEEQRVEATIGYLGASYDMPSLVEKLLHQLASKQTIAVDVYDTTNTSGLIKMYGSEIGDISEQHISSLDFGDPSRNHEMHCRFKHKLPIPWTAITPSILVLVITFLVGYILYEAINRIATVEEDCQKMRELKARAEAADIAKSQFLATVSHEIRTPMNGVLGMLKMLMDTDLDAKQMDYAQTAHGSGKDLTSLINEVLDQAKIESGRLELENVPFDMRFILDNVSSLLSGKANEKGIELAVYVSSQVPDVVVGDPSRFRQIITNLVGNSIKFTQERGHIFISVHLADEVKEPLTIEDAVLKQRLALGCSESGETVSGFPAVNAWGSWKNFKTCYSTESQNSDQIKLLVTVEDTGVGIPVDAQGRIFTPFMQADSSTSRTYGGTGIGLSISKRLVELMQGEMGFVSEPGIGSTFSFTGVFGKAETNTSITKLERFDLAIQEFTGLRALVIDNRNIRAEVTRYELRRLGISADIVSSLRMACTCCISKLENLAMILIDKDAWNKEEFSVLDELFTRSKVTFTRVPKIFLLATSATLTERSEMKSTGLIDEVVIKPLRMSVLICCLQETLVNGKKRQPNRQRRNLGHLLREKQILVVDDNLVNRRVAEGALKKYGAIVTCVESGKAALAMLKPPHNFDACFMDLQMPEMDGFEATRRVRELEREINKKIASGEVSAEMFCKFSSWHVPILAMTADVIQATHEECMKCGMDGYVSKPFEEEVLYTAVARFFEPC", "settings": "TM182-AHK2, DOLU+Glu agar, 30° C. for 30 hours", "protocol": "as §1, §2"}}}
{"smiles": "C/C(=C\\CNc1ncnc2nc[nH]c12)CO", "note": "[trans-zeatin]", "values": [{"measurement": "lowest observed supply concentration in which the transformed cells could be grown", "setting": "cytokinin receptor AHK2Δ; 1 nM to 100 μM tested", "result": 100, "unit": "nM"}, {"measurement": "growth state of the transformed cells as compared with media containing no trans-zeatin", "setting": "cytokinin receptor AHK2Δ; 10 μM", "result": "high growth"}, {"measurement": "lowest observed supply concentration in which the transformed cells could be grown", "setting": "cytokinin receptor CRE1; 1 nM to 100 μM tested", "result": 10, "unit": "µM"}, {"measurement": "growth state of the transformed cells as compared with media containing no trans-zeatin", "setting": "cytokinin receptor CRE1; 10 μM", "result": "high growth"}, {"measurement": "lowest observed supply concentration in which the transformed cells could be grown", "setting": "cytokinin receptor AHK2; 1 nM to 100 μM tested", "result": 1, "unit": "µM"}, {"measurement": "growth state of the transformed cells as compared with media containing no trans-zeatin", "setting": "cytokinin receptor AHK2; 10 μM", "result": "high growth"}]}
